Measurements as given in patent publication US20250320194A1, “PHARMACEUTICALLY ACCEPTABLE SALT AND CRYSTAL FORM OF FUSED PYRIDINE RING DERIVATIVE AND PREPARATION METHOD THEREFOR” (Jiangsu Hengrui Pharmaceuticals Co., Ltd., priority 2021, published 2025).

Experiments:
HIV-1 capsid protein = target: T1, HIV-1 capsid protein (Human immunodeficiency virus type 1 group M subtype B, UniProt P12493); assay: In vitro polymerization of HIV-1 capsid protein (HTRF, His-CA/GST-CA); format: biochemical, HIV-1 NL4-3
T1 construct: made in house
Description: • 1. MAb Anti GST-Eu cryptate (Cisbio) • 2. MAb Anti 6HIS-XL665 (Cisbio) • 3. His tag HIV-1 capsid protein (hereinafter referred to as His-CA) • 4. GST tag HIV-1 capsid protein (hereinafter referred to as GST-CA) • 5. 384-well unbound surface microplate, white (Corning) • 6. Microplate reader (BMG)
The HIV-1 capsid proteins aggregate spontaneously in high-salt solutions. Capsid protein derived from HIV-1 NL4-3 strains were separately tagged and expressed with 6His tag and GST tag, and purified. His-CA and GST-CA were mixed at high-salt concentrations, and the level of polymerization of capsid proteins was detected using GST antibody labeled with Eu3+-Cryptate (energy donor) and His antibody labeled with XL665 (energy acceptor). […]
His-CA was diluted to […] in a clean tube with protein diluent (50 mM Tris-HCl, pH 8.0, 50 mM NaCl, 0.4 mM MgCl2, 0.05% Triton X-100, 2% glycerol) while MAb Anti 6HIS-XL665 at a final concentration of 260 nM was added; GST-CA was diluted to 20 nM with protein diluent in another clean tube while MAb Anti GST-Eu cryptate at a final concentration of 3.33 nM was added and incubated on ice for half an hour. […] After incubation, the samples were excited with an excitation light at 337 nM, and signal values at 620 nM and 665 nM were collected for detection, wherein Ratio values=(665 nM/620 nM signal)*10000 was calculated according to the signal values. EC50 values for compounds were calculated using Graphpad Prism software based on each concentration of the compounds and the corresponding Ratio values.

[1] = Hygroscopicity of salt crystal forms (DVS, 25° C.); format: physicochemical; conditions: for Hygroscopicity 0.0% RH-95.0% RH / Hygroscopicity 20.0% RH-80.0% RH: DVS, 25° C.; for Crystal form: after DVS
Experimental: The test adopts SMS DVS Advantage, at 25° C., with a humidity range of 0 to 95% and a step of 10%. The judgment standard is that the dM/dT of each gradient mass change is less than 0.002%, TMAX is 360 minutes, and the cycle is two times. • 5. Cation chromatography • Instrument model: DIONEX AQUION ion chromatograph, USA • Detection method: conductivity; separation column: IonPac CS16-CG16 • Eluent: MSA 20Mm • Flow rate: 1.0 ml/min • 6. Anion chromatography • Instrument model: DIONEX INTEGRION HPIC ion chromatograph, USA • Detection method: conductivity; separation column: DionexIonPac™-AS11-HC • Eluent: EGC-500-KOH • Flow rate: 1.5 ml/min
Using Surface Measurement Systems advantage, at 25° C., the humidity starts from 50%, the humidity range is 0% to 95%, the step is 10%. The judgment standard was that the dM/dT of each gradient mass change is less than 0.002%, TMAX360 min, and the cycle was two times. The hygroscopicity of different salt crystal forms of the compound of formula I was investigated respectively.

[2] = Long-term/accelerated stability; conditions: for Purity %: 4° C.; for physical and chemical stability (conclusion): long-term accelerated stability conditions for 6 months
[3] = Stability under influencing factors (high temperature, high humidity, open, 30 days); conditions: for physical and chemical stability (conclusion): 75% RH and 92.5% RH

## CC(C)(C#Cc1nc([C@H](Cc2cc(F)cc(F)c2)NC(=O)Cn2nc(C(F)(F)F)c3c2C(F)(F)[C@@H]2C[C@H]32)c(-c2ccc(Cl)c3c(NS(C)(=O)=O)nn(CC(F)(F)F)c23)c2c1CCC2)S(C)(=O)=O (atropisomer, axis not shown; (aR)) [The compound of formula (I), N—((S)-1-((R)-4-(4-chloro-3-(methanesulfonamide)-1-(2,2,2-trifluoroethyl)-1H-indazol-7-yl)-1-(3-methyl-3-(methylsulfonyl)but-1-yn-1-yl)-6,7-dihydro-5H-cyclopenta[c]pyridin-3-yl)-2-(3,5-difluorophenyl)ethyl)-2-((3bS,4aR)-5,5-difluoro-3-(trifluoromethyl)-3b,4,4a,5-tetrahydro-1H-cyclopropa[3,4]cyclopenta[1,2-c]pyrazol-1-yl)acetamide]
HIV-1 capsid protein
  EC50: 9 nM
  Emax: 100%
HIV-1 capsid protein; conclusion in words
  inhibition effect on the polymerization of HIV-1 capsid proteins: significant inhibition effect

## CC(C)(C#Cc1nc(C(Cc2cc(F)cc(F)c2)NC(=O)Cn2nc(C(F)(F)F)c3c2C(F)(F)C2CC32)c(-c2ccc(Cl)c3c([N-]S(C)(=O)=O)nn(CC(F)(F)F)c23)c2c1CCC2)S(C)(=O)=O.[Na+] (centres unmarked) [Crystal form III of the sodium salt]
[1]
  Hygroscopicity 0.0% RH-95.0% RH: 2.04%
  Hygroscopicity 20.0% RH-80.0% RH: 0.73%
  Crystal form: Unchanged
[2]; 1 month
  Purity %: 98.25%
[2]; 2 months
  Purity %: 98.26%
[2]; 3 months
  Purity %: 98.24%
[2]; 6 months
  Purity %: 98.28%
[2]; Start
  Purity %: 98.32%
[2]
  physical and chemical stability (conclusion): good physical and chemical stability
[3]; 40° C., 60° C.
  physical and chemical stability (conclusion): good physical and chemical stability
[3]; 40° C., 5 days
  Color, properties: White solid
  Crystal form: Unchanged
  Purity %: 97.98%
[3]; 40° C., 10 days
  Color, properties: White solid
  Crystal form: Unchanged
  Purity %: 98.10%
[3]; 40° C., 30 days
  Color, properties: White solid
  Crystal form: Unchanged
  Purity %: 98.06%
[3]; 60° C., 5 days
  Color, properties: White solid
  Crystal form: Unchanged
  Purity %: 98.05%
[3]; 60° C., 10 days
  Color, properties: White solid
  Crystal form: Unchanged
  Purity %: 98.08%
[3]; 60° C., 30 days
  Color, properties: White solid
  Crystal form: Unchanged
  Purity %: 97.99%
[3]; 75% RH, 5 days
  Color, properties: White solid
  Crystal form: Unchanged
  Purity %: 98.08%
[3]; 75% RH, 10 days
  Color, properties: White solid
  Crystal form: Unchanged
  Purity %: 98.10%
[3]; 75% RH, 30 days
  Color, properties: White solid
  Crystal form: Unchanged
  Purity %: 98.00%
[3]; 92.5% RH, 5 days
  Color, properties: White solid
  Crystal form: Unchanged
  Purity %: 97.94%
[3]; 92.5% RH, 10 days
  Color, properties: White solid
  Crystal form: Unchanged
  Purity %: 97.94%
[3]; 92.5% RH, 30 days
  Color, properties: White solid
  Crystal form: Unchanged
  Purity %: 97.89%
[3]; Start, 0 days
  Color, properties: White solid
  Purity %: 98.23%

## CC(C)(C#Cc1nc(C(Cc2cc(F)cc(F)c2)NC(=O)Cn2nc(C(F)(F)F)c3c2C(F)(F)C2CC32)c(-c2ccc(Cl)c3c([N-]S(C)(=O)=O)nn(CC(F)(F)F)c23)c2c1CCC2)S(C)(=O)=O.[K+] (centres unmarked) [Crystal form a of the potassium salt]
[1]
  Hygroscopicity 0.0% RH-95.0% RH: 8.77%
  Hygroscopicity 20.0% RH-80.0% RH: 2.86%
  Crystal form: Unchanged
[2]; 40° C., 75% RH
  Crystal form: Deliquesce
[2]
  physical and chemical stability (conclusion): good physical and chemical stability
[3]; 40° C., 60° C.
  physical and chemical stability (conclusion): good physical and chemical stability
[3]; 40° C., 5 days
  Color, properties: White solid
  Crystal form: Unchanged
  Purity %: 97.97%
[3]; 40° C., 10 days
  Color, properties: White solid
  Crystal form: Unchanged
  Purity %: 98.04%
[3]; 40° C., 30 days
  Color, properties: White solid
  Crystal form: Unchanged
  Purity %: 97.96%
[3]; 60° C., 5 days
  Color, properties: White solid
  Crystal form: Unchanged
  Purity %: 98.01%
[3]; 60° C., 10 days
  Color, properties: White solid
  Crystal form: Unchanged
  Purity %: 98.01%
[3]; 60° C., 30 days
  Color, properties: White solid
  Crystal form: Unchanged
  Purity %: 97.82%
[3]; 75% RH, 5 days
  Color, properties: White solid
  Crystal form: Unchanged
  Purity %: 97.96%
[3]; 75% RH, 10 days
  Color, properties: White solid
  Crystal form: Unchanged
  Purity %: 98.04%
[3]; 75% RH, 30 days
  Color, properties: White solid
  Crystal form: Unchanged
  Purity %: 98.02%
[3]; 92.5% RH, 5 days
  Color, properties: White solid
  Crystal form: Unchanged
  Purity %: 97.96%
[3]; 92.5% RH, 10 days
  Color, properties: White solid
  Crystal form: Unchanged
  Purity %: 98.04%
[3]; 92.5% RH, 30 days
  Color, properties: White solid
  Crystal form: Unchanged
  Purity %: 98.02%
[3]; Start, 0 days
  Color, properties: White solid
  Purity %: 98.03%
